Assay results taken from US20250020635A1, “ASSAY METHODS AND USES THEREOF FOR SCREENING ALZHEIMER'S DISEASE TREATMENT COMPOUNDS” (priority 2023, published 2025).

What was measured:
HiBit only = test: Cellular thermal shift assay (CETSA), HiBit only control; assay type: cell-based, human; details: for HiBit only %, percent luminescence at highest dose with HiBit only compared to control (DMSO): 100 μM
His-PLCγ2 protein = biological target: T1, His-PLCγ2 protein (Homo sapiens, UniProt P16885); test: Affinity selection mass spectrometry (ASMS); assay type: binding; details: dose range 100-0.05 μM, PLCγ2 400 nM
T1 sequence (P16885 1-1265): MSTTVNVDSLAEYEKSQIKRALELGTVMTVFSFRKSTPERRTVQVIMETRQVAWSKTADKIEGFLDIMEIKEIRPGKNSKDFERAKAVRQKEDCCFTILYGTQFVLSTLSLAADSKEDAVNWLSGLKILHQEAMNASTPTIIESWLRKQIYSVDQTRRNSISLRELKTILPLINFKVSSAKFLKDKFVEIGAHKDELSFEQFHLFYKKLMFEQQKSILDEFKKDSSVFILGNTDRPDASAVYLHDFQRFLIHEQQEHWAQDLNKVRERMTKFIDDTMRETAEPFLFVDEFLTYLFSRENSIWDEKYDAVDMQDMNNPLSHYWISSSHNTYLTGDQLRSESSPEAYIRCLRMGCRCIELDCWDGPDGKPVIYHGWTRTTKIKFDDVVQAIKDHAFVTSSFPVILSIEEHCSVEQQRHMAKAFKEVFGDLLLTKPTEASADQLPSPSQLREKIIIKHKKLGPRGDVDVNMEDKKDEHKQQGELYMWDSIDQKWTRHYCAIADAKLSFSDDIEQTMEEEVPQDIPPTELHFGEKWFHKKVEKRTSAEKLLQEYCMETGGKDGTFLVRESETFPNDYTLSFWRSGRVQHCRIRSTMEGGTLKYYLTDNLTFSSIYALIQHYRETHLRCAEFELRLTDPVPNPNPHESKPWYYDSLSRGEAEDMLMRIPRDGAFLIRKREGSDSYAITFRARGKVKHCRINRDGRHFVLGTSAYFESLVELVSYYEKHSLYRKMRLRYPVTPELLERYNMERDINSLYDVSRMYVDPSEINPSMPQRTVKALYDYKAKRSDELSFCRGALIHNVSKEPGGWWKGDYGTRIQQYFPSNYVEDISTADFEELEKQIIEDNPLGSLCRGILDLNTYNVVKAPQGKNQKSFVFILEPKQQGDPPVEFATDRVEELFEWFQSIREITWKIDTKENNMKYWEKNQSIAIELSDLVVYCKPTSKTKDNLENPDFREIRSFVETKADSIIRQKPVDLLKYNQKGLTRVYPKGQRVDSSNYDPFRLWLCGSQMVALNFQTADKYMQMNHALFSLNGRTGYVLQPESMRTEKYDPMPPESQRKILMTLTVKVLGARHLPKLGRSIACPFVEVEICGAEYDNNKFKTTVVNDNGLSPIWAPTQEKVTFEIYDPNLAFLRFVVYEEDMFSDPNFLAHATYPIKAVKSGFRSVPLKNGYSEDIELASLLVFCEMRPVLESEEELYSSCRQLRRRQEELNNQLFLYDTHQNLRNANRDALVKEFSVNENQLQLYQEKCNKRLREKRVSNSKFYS
Experimental: Using a dose range of 100-0.05 μM in 384 well low-volume polypropylene microtiter plates, a solution of PLCγ2 (final concentration 400 nM) was transferred to biochip arrays functionalized with a Tris-Ni-NTA-presenting self-assembled monolayer to immobilize the His-tagged protein. The arrays were incubated for 90 min in a humidified chamber to prevent evaporation and allow for specific immobilization of the His-PLCγ2 protein, along with any bound small molecules. The arrays were purified by a rapid <3 second gentle wash step with deionized ultra-filtered water and dried with compressed air. ASMS was performed using the reflector positive mode on an Aβ Sciex TOF-TOF 5800 System (Aβ Sciex, Framingham, MA).

[1] = Kinetic solubility in pH 7.4 phosphate buffer; assay type: physicochemical
Experimental: (§1) Physicochemical and ADME properties were determined using the following assays: microsomal stability intrinsic clearance (Clint) in mouse liver microsomal solution, MDCK permeability (Papp), protein binding (fu) in mouse plasma, and kinetic solubility in pH 7.4 phosphate buffer (Table 7).

[2] = Microsomal stability intrinsic clearance; assay type: in vitro ADME; details: mouse liver microsomes
Experimental: as §1

MDCK = MDCK permeability; assay type: in vitro ADME; details: estimate of intestinal absorption
Experimental: as §1

[3] = Protein binding in mouse plasma; assay type: in vitro ADME
Experimental: as §1

Structure (SMILES) | HiBit only %, percent luminescence at highest dose with HiBit only compared to control (DMSO) (HiBit only) [%] | target engagement, signal against background (His-PLCγ2 protein) | Kinetic solubility [1] [µM] | HiBit only % @100 μM (HiBit only; Table 1, @100 μM) [%] | Clint, intrinsic clearance [2] [µL/min/mg] | Papp, MDCK permeability (MDCK) | fu, fraction unbound [3]
Cc1cc(C)c(S(=O)(=O)NC2CCCNC2)c(C)c1 (stereo not shown) [Compound 11] | 93 | – | – | – | – | – | –
Cc1cc(C)c(S(=O)(=O)Nc2ccccc2C(F)(F)F)c(C)c1 [Compound 2, o-3M3FBS, reference compound] | – | neither 1 or 2 indicated substantial evidence of target engagement | – | – | – | – | –
Cc1cc(C)c(S(=O)(=O)Nc2cccc(C(F)(F)F)c2)c(C)c1 [Compound 1, 2,4,6-trimethyl-N-(meta-3-trifluoromethyl-phenyl)-benzenesulfonamide, reference compound] | – | neither 1 or 2 indicated substantial evidence of target engagement | 21 to 40 | – | – | – | –
O=S(=O)(Nc1ccc(Br)cc1F)c1cccs1 [Compound 8] | 44 | – | >100 | 44 | 77.83 | 95.0 ×10−^6 cm/s | 0.0193
